Key:
[1] = Isothermal titration calorimetry of Ca^2+ binding to S100A4 constructs
Procedure: Fig. 2 ITC records for Ca^2+ binding to S100A4 constructs: (a) 75 μM wild type at 30 °C; (b) 75 μM wild type at 10 °C; (c) 75 μM E33Q construct at 30 °C; (d) 300 μM D63N construct at 30 °C. For mutant constructs data at 10 °C, see Fig. S1. All preparations were dialysed against the same buffer of 20 mM NaCl, 10 mM Hepes, and 2 mM DTT (pH 7.5).
ITC data were collected using a VP-ITC microcalorimeter (MicroCal Ltd., Northampton, MA) and analysed by fitting to a single-site binding equation or a two-site binding equation using MicroCal Origin software.

[2] = Stopped-flow Quin-2 fluorescence, Ca^2+ dissociation from / binding to S100A4 constructs (no target)
Text: In order to increase the signal-to-noise ratio of the Ca^2+ dissociation transients, we used Quin-2 as combined fluorescent indicator and high-affinity chelator.[19,20] These measurements confirmed that Ca^2+ dissociated from wild-type protein with a rate constant of 16 s^− 1 (Fig. 3a; cf. 20 s^− 1 for the tyrosine signal). Given the poor signal-to-noise ratio of the tyrosine signal, the difference is barely significant but may reflect the fact that the Quin-2 signal represents at least a two-step sequential reaction (Ca^2+ dissociation from S100AS4, followed by rapid binding to Quin-2).
Fig. 3 (a) Dissociation of Ca^2+ from wild-type S100A4 (black), E33Q mutant (blue), and D63N mutant (red), as monitored by Quin-2 fluorescence. […] The records for the mutants were vertically offset for clarity. (b) Ca^2+ binding to S100A4 as determined from the amplitude of the resolved transient (k ≈ 20 s^− 1) when 6.5 μM S100A4 was preincubated with various added [Ca^2+] and then mixed with 100 μM Quin-2. The amplitude was converted into a bound concentration from an independent calibration using the same Quin-2 solution and known free [Ca^2+]. […] While either model could account for the data, the measured stoichiometry from ITC (Table 1) favors the cooperative model.
Stopped-flow measurements were carried out using an SX18-MV apparatus (Applied Photophysics Ltd., Leatherhead, UK) with a dead time of 1.5 ms.[40] Records were generally captured on a logarithmic time base. Absorption (turbidity) measurements were usually recorded using a 10-mm pathlength, while fluorescence was recorded with a 2-mm pathlength for excitation and emission. The stated concentrations of components refer to the reaction chamber after mixing, unless otherwise indicated. Tyrosine fluorescence was excited at 280 nm, and the emission was collected through a UG11 bandpass filter plus a 305-nm longpass filter.[18] Fluorescein fluorescence was excited at 480 nm, and the emission was detected through a 515-nm longpass filter. Quin-2 fluorescence was measured by excitation at 336 nm, and emission was collected with a 455-nm longpass filter. For simultaneous recording of light scatter, a second channel was monitored through a UG11 filter. Rate constants were obtained by fitting to single-exponential or double-exponential functions using Kaleidagraph (Synergy Software) or Applied Photophysics Pro-Data software. Modeling of kinetic schemes was performed using Berkeley Madonna software.

[3] = cited from earlier work
Procedure: S100A4 contains two tyrosine residues (one in each of the EF-hand domains), and mutating each in turn to phenylalanine enabled us to identify the source of the signal change. […] Ca^2+ binds to the S100A4 dimer with an affinity of around 2–6 μM. […] Regarding the assignment of the sites to EF1 or EF2, the E33Q mutant appears more similar to wild-type S100A4 than the D63N mutant and has an intact EF2 site, as determined by tyrosine and Quin-2 fluorescence (Fig. 3a; ...

M200 filaments = conditions: cited from earlier work
Text: Over the last two decades, there has been much interest in the role of the S100 Ca^2^+-binding protein family in the regulation of cellular events.[1,2] Identifying the specific targets of each of the 24 members[3] and deducing their mechanisms of action in vitro and in vivo remain to be a challenge. This is exemplified by S100A4 (also known as Mts1, metastasin, p9Ka, pEL98, calvasculin, and Fsp-1), which has been implicated in a wide range of cellular events and numerous diseases and binds to several different targets in vitro.[4–6] In particular, following early work,[7–9] there have been ma ... || A corresponding stoichiometry is also seen in the interaction of S100A4 with M200, where 2 mol of S100A4 monomer was required to solubilise 1 mol of M200 aggregate (when expressed as M200 polypeptide chain concentration) (Fig. 9b). […] These stoichiometries complicate the calculation of the equilibrium parameters for the models described in Schemes 1 and 2. If the binding sites remaine ...

[4] = cited from earlier work; remark: listed apart in the source
Text: Apart from the different methods used to study Ca^2+ binding, which have sensitivities over different concentration ranges, part of the variability in Kd values in the literature may arise from the self-association of S100A4. There is a general consensus[12,13,17,21,22] that S100A4 exists predominantly as a dimer at micromolar concentrations (indeed, this can lead to difficulties in interpreting literature values for stoichiometries quoted as ‘moles of Ca^2+ bound per mole of S100A4’ if the latter is not stated explicitly as being per monomer or per dimer). In the absence of Ca^2+, monomeric S ... || In the absence of added Ca^2+ (i.e., where the free “contaminant” [Ca^2+] in buffers would be of the order of 1 μM), mixing S100A4 with excess Quin-2 produced a small-amplitude signal (corresponding to 0.1 mol of Ca^2+ per mole of S100A4 monomer) with a rate constant of around 1 s^− 1.

For “S100A4: recombinant S100A4 expressed in E. coli BL21(DE3)”, the “n1 (Ca^2+ per monomer)” value ([1]; 10 °C, 75 μM protein (D63N 300 μM), 20 mM NaCl, 10 mM Hepes, 2 mM DTT, pH 7.5) was 0.95 ± 0.014 Ca^2+ per monomer, the “n1 (Ca^2+ per monomer)” value ([1]; 30 °C, 75 μM protein (D63N 300 μM), 20 mM NaCl, 10 mM Hepes, 2 mM DTT, pH 7.5) was 0.83 ± 0.2 Ca^2+ per monomer and the “stoichiometry (discussion)” value ([1]; ITC) was “one Ca^2+ per S100A4 monomer”. It also gave a Kd ([1]; first site, Ca^2+ binding, 30 °C, 75 μM protein (D63N 300 μM), 20 mM NaCl, 10 mM Hepes, 2 mM DTT, pH 7.5, read-out: K1d) of 1700 nM, a Kd ([1]; first site, 10 °C, wild type and E33Q cooperative, read-out: K1d) of 1600 ± 400 nM and a Kd ([1]; one Ca^2+ per S100A4 monomer, read-out: Kd for Ca^2+ (discussion)) of 1700 nM. The Kd ([1]; read-out: Ca^2+ affinity of S100A4 dimer (discussion)) was 2000 to 6000 nM, the “N2 (Ca^2+ per monomer)” value ([1]; second site, 30 °C) was 0.42 ± 0.27 Ca^2+ per monomer and the Kd ([1]; second site, 30 °C, read-out: K2d) was 5700 ± 1100 nM. For the same substance, the “stoichiometry of the higher-affinity site” value ([1]; summary of Table 1) was 0.8–0.9 Ca^2+ per monomer, the Kd ([1]; temperatures of ≥ 30 °C, read-out: Kd of second site (discussion)) was 6000 nM and the “kobs, Ca^2+ dissociation, no target (k− 1)” value ([2]; 10 μM S100A4 + 50 μM Ca^2+ mixed with 100 μM Quin-2, pH 7.5, 20 °C) was 17 s^− 1. The Kd ([2]; model for Fig. 3b data, read-out: Kd, EF2 site (alternative model)) was 5000 nM, the Kd ([2]; model for Fig. 3b data, read-out: Kd, first Ca^2+ at EF2 of dimer (cooperative model)) was 100000 nM and the Kd ([2]; model for Fig. 3b data, read-out: Kd, second Ca^2+ at EF2 of dimer (cooperative model)) was 1700 nM. The “amplitude without added Ca^2+” value ([2]; no added Ca^2+, excess Quin-2) was 0.1 mol of Ca^2+ per mole of S100A4 monomer, the “rate constant without added Ca^2+” value ([2]; no added Ca^2+, excess Quin-2) was “around 1 s^− 1” and the Kd ([2]; optically silent EF1 model for Fig. 3b data, read-out: Kd, EF1 site (alternative model)) was 250 nM. For the same substance, the “Ca^2+ bound per monomer from calibrated Quin-2 amplitude” value ([2]; resolved signal, 6.5 μM S100A4, 100 μM Quin-2) was “one Ca^2+ bound per S100A4 monomer”, the “Ca^2+ dissociation rate constant (Quin-2)” value ([2]; single exponential fit, no target) was 16 s^− 1 and the “rate constant of second slow phase of Ca^2+ dissociation” value ([2]; some preparations) was 0.4–4 s^− 1. For the same substance, the “Ca^2+ bound per S100A4 monomer” value ([3]; amplitude of tyrosine fluorescence change on addition of Ca^2+) was 1.7 ± 0.18 Ca^2+ bound per S100A4 monomer, the “Ca^2+ dissociation rate constant (tyrosine)” value [3] was 20 s^− 1 and the “dissociation of rod filaments” value (M200 filaments; 20 mM NaCl) was “ineffective at dissociating rod filaments”. The “S100A4 dimer required to disassemble 1 mol of NM-MHC IIA rods” value (M200 filaments; ref 11 (Li et al.)) was 1 mol of S100A4 dimer, the “protein concentration at which monomer is detected” value ([4]; absence of Ca^2+) was “below 2 μM” and the “concentration at which tetrameric and higher aggregates become significant” value ([4]; presence of Ca^2+) was “exceeding 20 μM”. The “Ca^2+ affinity of tetramer relative to dimer” value ([4]; suggested by ultracentrifuge data) was “about 20 -fold”.
